Laboratory results published in US11421145B2, “Oil recovery methods using a formulation containing an unsaturated zwitterionic surfactant and a polymer” (King Fahd University of Petroleum and Minerals, priority 2019, dated 2022).

Columns and labels:
Assay type in all cases: physicochemical
[1] = Solubility and compatibility in seawater (SW) and formation water (FW)
Description: Synthetic seawater (SW) and formation water (FW) were prepared using NaCl, Na2SO4, NaHCO3, CaCl2, and MgCl2. All the salts were obtained from Sigma-Aldrich, USA.
Solubility and compatibility of the surfactant in the reservoir and injection brine are the primary considerations for further evaluation of the unsaturated surfactant for EOR application. If the surfactant is not soluble in the seawater and formation brine, it can be rejected at the initial stage. […] After the compatibility test with SW and FW, the short-term thermal stability of the synthesized unsaturated surfactant was evaluated using TGA analysis. […] Only 3% weight loss was observed up to 200° C., which was mainly associated with solvent and water evaporation. […] TGA results helped to identify and eliminate the surfactants that had lower decomposition temperatures. However, for real field applications, long-term thermal stability of the surfactant must be considered, as the surfactant residence time in the reservoir could vary from a few days to a few months.

[2] = Compatibility of surfactant with AM-AMPS copolymer; conditions: commercially available AM-AMPS copolymer
Description: The interactions of the synthesized unsaturated surfactant with a commercially available copolymer of acrylamide and 2-acrylamido-2-methylpropane sulfonic acid (AM-AMPS) were evaluated using compatibility and rheological tests.

[3] = Surface tension by pendant-drop technique (CMC and surface properties)
Description: The surface tension of the unsaturated surfactant in SW and FW at different temperatures was analyzed using a Biolin Scientific Attension instrument. The pendant-drop technique was used to measure the surface tension at 30° C. and 60° C. Other surface properties such as CMC, surface tension at CMC (γcmc), surfactant ability at lower surface tension (πcmc), maximum surface access (Γmax), and minimum area per molecule (Amin) were also obtained from the surface tension data. These surface properties were calculated using Eqs. 1-3,
(§1) where γ0 is the surface tension of the brine (FW or SW), NA is the Avogadro number, dγ/dlnC is the slope below CMC in the surface tension plot, C is the surfactant concentration in brine, T is temperature, R is the gas constant, and n=1 for zwitterionic surfactants [Wang, Y., Zhang, Y., Liu, X., Wang, J., Wei, L., & Feng, Y. (2014) Effect of a hydrophilic head group on Krafft temperature, surface activities and rheological behaviors of Erucyl Amidobetaines. Journal of Surfactants and Detergents, 17:295-301—incorporated herein by reference]. The interfacial tension between crude oil and water was measured using a spinning drop tensiometer from Kruss (SITE 100). All the reported points are the average equilibrium values.
Variations in the surface tension of the unsaturated surfactant with concentration at different temperatures and salinities are summarized in FIG. 7. […] The CMC and surface tension corresponding to the CMC (γcmc) were estimated from the breakpoint in surface tension versus concentration plots. […] A similar reduction in CMC with increasing NaCl concentration was reported for the alkyl amidosulfobetaine surfactant [Feng, Y., & Chu, Z. (2016) Correlating surface activity with structural and environmental parameters for alkylamidosulfobetaine surfactants. Colloid and Polymer Science, 294:957-963, incorporated herein by reference in its entirety]. However, in this disclosure, the reduction in the CMC was observed when SW was replaced with FW. The reduction in the CMC could be associated with the salting-out effect of the unsaturated surfactant hydrophobic tail, which got enhanced by increasing the salinity [Feng, Y., & Chu, Z. (2016) Correlating surface activity with structural and environmental parameters for alkylamidosulfobetaine surfactants. Colloid and Polymer Science, 294:957-963, incorporated herein by reference in its entirety].

[4] = Interfacial tension between crude oil and water, spinning drop tensiometer; conditions: for IFT after aging: after aging at 90° C. for 2 weeks
Excerpt: API gravity and molecular weight of the oil were 30 and 251 g mol^−1, respectively.
as §1
Interfacial tension is one of the main parameters to assess the performance of surfactants for EOR application. Interfacial tension depends on several parameters such as the nature of the crude oil, salinity, temperature, pH, surfactant type and its molecular structure, surfactant concentration, and residence time of the surfactant inside the reservoir. […] The spinning drop tensiometer can measure ultra-low IFT down to 10^−4 mN m^−1 at various temperatures. This equipment could go up to 90° C., but it was difficult to get a stable drop due to bubble formation, therefore the IFT calculated at 90° C. might not be an accurate representation. Therefore, measuring IFT at high temperature was avoided and another strategy was adopted. Specifically, several solutions at field conditions (90° C.) were aged for 2 weeks and then their IFT was compared with that of the original solution. The water/oil IFT was initially >9 mN m^1 in both FW and SW. […] The low CMC is advantageous because the same IFT reduction can be achieved at a very low surfactant concentration. In addition, IFT will not change considerably because of surfactant adsorption. In general, no considerable change in IFT was detected within the investigated temperatures and salinities. […] Canadian Journal of Chemical Engineering, 94:454-460; and Li, P., Yang, C., Cui, Z., Song, B., Jiang, J., & Wang, Z. (2016) A new type of sulfobetaine surfactant with double alkyl polyoxyethylene ether chains for enhanced oil recovery. Journal of Surfactants and Detergents, 19:967-977, each incorporated herein by reference in their entirety]. […] Journal of Surfactants and Detergents, 20:777-788; and Hussain, S. S., Kamal, M. S., & Sultan, A. S. (2017) Amido-amine-based cationic Gemini surfactants: Thermal and interfacial properties and interactions with cationic polyacrylamide. Journal of Surfactants and Detergents, 20:47-55, each incorporated herein by reference in their entirety].

[5] = 0.02 wt. % surfactant, FW, 60° C.
[6] = 0.02 wt. % surfactant, SW, 30° C.
[7] = 0.05 wt. % surfactant, FW, 60° C.
[8] = 0.05 wt. % surfactant, SW, 30° C.

CCCCCCCC/C=C\CCCCCCCC(=O)NCCC[N+](C)(C)CCCS(=O)(=O)[O-] [unsaturated surfactant, 3-(N-oleamidopropyl-N,N-dimethylammonium) propane sulfonate]
precipitation or phase separation on dissolution ([1]; SW (57,643 ppm) and FW (213,734 ppm)): no precipitation or phase separation
solubility in SW and FW ([1]; seawater and formation water): excellent solubility
compatibility with acrylamide copolymer [2]: excellent compatibility
Amin ([3]; FW, 60 °C): 0.28 nm^2
CMC ([3]; FW, 60 °C): 1.53 × × 10^−4 mol L^−1
Γmax × 10^6 ([3]; FW, 60 °C): 5.88 mol m^−2
γcmc ([3]; FW, 60 °C): 33.55 mN m^−1
πcmc ([3]; FW, 60 °C): 38.04 mN m^−1
Amin ([3]; SW, 30 °C): 0.22 nm^2
CMC ([3]; SW, 30 °C): 1.02 × × 10^−4 mol L^−1
Γmax × 10^6 ([3]; SW, 30 °C): 7.27 mol m^−2
γcmc ([3]; SW, 30 °C): 30.23 mN m^−1
πcmc ([3]; SW, 30 °C): 41.76 mN m^−1
Amin ([3]; SW, 60 °C): 0.29 nm^2
CMC ([3]; SW, 60 °C): 2.05 × × 10^−4 mol L^−1
Γmax × 10^6 ([3]; SW, 60 °C): 5.60 mol m^−2
γcmc ([3]; SW, 60 °C): 31.03 mN m^−1
πcmc ([3]; SW, 60 °C): 40.96 mN m^−1
CMC expressed as surfactant concentration ([3]; corresponding to 1.02×10^−4 mol L^−1): 0.005%
CMC ([3]; in FW (summary b150)): 0.000205 mol/L
CMC ([3]; in SW (summary b150)): 0.000102 mol/L
CMC ([3]; in SW and FW (as worded)): 0.000102 mol/L
IFT ([4]; 0.01 wt. % surfactant, FW, 60° C.): 0.33 mN m^−1
IFT ([4]; 0.01 wt. % surfactant, SW, 30° C.): 0.31 mN m^−1
IFT ([4]; 0.01 wt. % surfactant, SW, 60° C.): 0.36 mN m^−1
IFT [4, 5]: 0.25 mN m^−1
IFT after aging [4, 5]: 0.27 mN m^−1
IFT [4, 6]: 0.21 mN m^−1
IFT after aging [4, 6]: 0.29 mN m^−1
IFT ([4]; 0.02 wt. % surfactant, SW, 60° C.): 0.27 mN m^−1
IFT [4, 7]: 0.23 mN m^−1
IFT after aging [4, 7]: 0.26 mN m^−1
IFT [4, 8]: 0.25 mN m^−1
IFT after aging [4, 8]: 0.29 mN m^−1
IFT ([4]; 0.05 wt. % surfactant, SW, 60° C.): 0.31 mN m^−1
IFT ([4]; 0.075 wt. % surfactant, FW, 60° C.): 0.24 mN m^−1
IFT ([4]; 0.075 wt. % surfactant, SW, 30° C.): 0.21 mN m^−1
IFT ([4]; 0.075 wt. % surfactant, SW, 60° C.): 0.30 mN m^−1
IFT ([4]; 0.1 wt. % surfactant, FW, 60° C.): 0.28 mN m^−1
IFT ([4]; 0.1 wt. % surfactant, SW, 30° C.): 0.22 mN m^−1
IFT ([4]; 0.1 wt. % surfactant, SW, 60° C.): 0.31 mN m^−1
IFT ([4]; 0.2 wt. % surfactant, FW, 60° C.): 0.27 mN m^−1
IFT ([4]; 0.2 wt. % surfactant, SW, 30° C.): 0.23 mN m^−1
IFT ([4]; 0.2 wt. % surfactant, SW, 60° C.): 0.32 mN m^−1
decrease in water/oil IFT on addition of surfactant ([4]; FW and SW, initial IFT >9): almost two orders of magnitude
oil/water IFT, order of magnitude ([4]; not affected much by temperature and salinity): ~10^−1 mN m^−1
change of water/oil IFT after aging ([4]; solutions aged at 90° C. for 2 weeks): did not change
